Assay [1] has as its system A549 (adenocarcinomic human alveolar basal epithelial cell). In words: Inhibition of cancer cell growth, MTT assay, A549. The format is cell-based. As to conditions: 72 h treatment. The method, then:
(§1) A375 (human melanoma cell, BRAF V600E Mutant), A549 (adenocarcinomic human alveolar basal epithelial cell) and Colo-205 (human colon carcinoma cell) were purchased from ATCC (American Type Culture Collection, Manassas, Va.). All cell lines were maintained in RPMI 1640 (Hyclone) or DMEM (Hyclone) supplemented with 10% fetal bovine serum (FBS, Hyclone), glutamine (2 mM, Hyclone), and antibiotics (penicillin 100 U/mL and streptomycin 50 μg/mL) at 37° C. in a humidified atmosphere of 5% CO2 in air.
(§2) To test IC50 of inhibition of individual compounds against each cell line, A375, A549 and Colo-205 cells were first plated in 96-well plates at densities of 2000-4000 cells/well. Cells were then incubated to allow cells to adhere and grow for 24 h. Cells were then treated with a series of concentrations of compounds for 72 h. The highest concentration of compounds was 20 μM. Cells were then removed from the incubator and medium was removed by inverting and tapping the plates. 100 μL of MTT (0.5 mg/ml) or 10 μL or MTS was added to each well followed by an incubated at 37° C. for 4 h. Then MTT was removed and 200 μL of DMSO was added to each well, followed by reading the ODs at 570 nm after a 5 second shaking cycle in a 96-well spectrophotometer. For MTS method, MTS was not removed, and the incubated solutions were directly put in a 96-well spectrophotometer for the reading of the ODs at 492 nm.
(§3) IC50 was calculated by plotting the concentration of compound vs the percentage of inhibition in treated wells using GraphPad Prism 5. […] The scale utilized in Table 3 is as follows: +++ less than 1 μM; ++ between 1 μM and 5 μM; and + greater than 5 μM.

For assay [2], the system named is Colo-205 (human colon carcinoma cell). Nature of the assay: Inhibition of cancer cell growth, MTS assay, Colo-205. To be noted: 72 h treatment. The format is cell-based. The method, then: as §1, §2, §3
The target in the next assay is T1, BRAF (Homo sapiens, UniProt P15056).
T1 construct: purchased Invitrogen
In words: Z'-LYTE kinase inhibition assay, BRAF. The format is biochemical. To be noted: 1 μM compound; Z'-LYTE method. The method, then:
(§4) Inhibitory activities of compounds against BRAF or BRAF V600E were measured by Invitrogen using Z′-LYTE® Method as briefly described in the following.
(§5) 4× Test compounds are dissolved in 1% DMSO. […] ATP solutions are diluted to a 4×ATP working concentration in Kinase Buffer (50 mM HEPES pH 7.5, 0.01% BRIJ-35, 10 mM MgCl2, 1 mM EGTA).
(§6) Reaction starts by 30-second shaking of mixture consisting of 2.5 μL 4× test compound, 2.5 μL 2× kinase reaction mixture and 2.5 μL 4×ATP Solution on Bar-coded Corning, low volume NBS, black 384-well plate (Corning Cat. #3676). Then the mixture is incubated for 60-minute at room temperature for the kinase reaction, followed by addition of 5 μL of a 1:1024 dilution of development reagent A and 30-second plate shake. The mixture is then incubated for another 60-minute at room temperature for development reaction. Finally fluorescence is read by plate reader.

In the next assay the target is T2, BRAF V600E (Homo sapiens, UniProt P15056, V600E).
T2 construct: purchased Invitrogen
In words: Z'-LYTE kinase inhibition assay, BRAF V600E. The format is biochemical. To be noted: 1 μM compound; Z'-LYTE method. The method, then: as §4, §5, §6

The subject of assay [3] is A375 (human melanoma cell, BRAF V600E Mutant). In words: Inhibition of cancer cell growth, MTT assay, A375. The format is cell-based. As to conditions: A-375, 72 h treatment. The method, then: as §1, §2, §3

T2 sequence (P15056 whole entry V600E): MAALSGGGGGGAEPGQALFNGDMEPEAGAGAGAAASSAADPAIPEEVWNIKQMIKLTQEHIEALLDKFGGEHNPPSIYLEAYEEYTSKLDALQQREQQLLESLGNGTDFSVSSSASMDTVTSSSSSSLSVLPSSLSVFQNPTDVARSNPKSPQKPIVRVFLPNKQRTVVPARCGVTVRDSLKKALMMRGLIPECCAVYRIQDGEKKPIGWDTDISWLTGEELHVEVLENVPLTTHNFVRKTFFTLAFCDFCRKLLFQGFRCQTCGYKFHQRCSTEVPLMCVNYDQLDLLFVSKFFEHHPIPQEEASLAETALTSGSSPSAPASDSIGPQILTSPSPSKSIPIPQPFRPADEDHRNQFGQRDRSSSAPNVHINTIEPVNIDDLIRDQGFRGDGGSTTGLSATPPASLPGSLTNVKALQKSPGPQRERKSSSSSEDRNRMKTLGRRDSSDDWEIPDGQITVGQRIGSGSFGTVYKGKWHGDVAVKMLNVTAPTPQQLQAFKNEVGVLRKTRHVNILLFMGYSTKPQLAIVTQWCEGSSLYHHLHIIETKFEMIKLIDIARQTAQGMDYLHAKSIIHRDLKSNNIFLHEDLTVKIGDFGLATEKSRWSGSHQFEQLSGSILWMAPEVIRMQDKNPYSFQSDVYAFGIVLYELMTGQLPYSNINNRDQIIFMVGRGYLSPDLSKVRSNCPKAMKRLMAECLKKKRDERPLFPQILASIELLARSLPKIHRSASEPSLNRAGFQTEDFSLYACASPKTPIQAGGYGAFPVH
T1 sequence (P15056 whole entry): as the sequence (P15056 whole entry V600E) above, with E600V counted along it

Take `CCCS(=O)(=O)Nc1cc(F)c(F)c(C(=O)c2ccc3ncccc3c2)c1F` [Compound C001, N-(2,4,5-trifluoro-3-(quinoline-6-carbonyl)phenyl)propane-1-sulfonamide]: the IC50 was above 5 µM in assay [1], 1 to 5 µM in assay [2] and below 1 µM in assay [3]. Besides, the inhibition at 1 µM at BRAF is 70 to 89%; on BRAF V600E it was above 89%.

`O=C(Nc1cccc(F)c1)Nc1cc(F)c(F)c(C(=O)c2ccc3ncccc3c2)c1F` [Compound C002, 1-(3-fluorophenyl)-3-(2,4,5-trifluoro-3-(quinoline-6-carbonyl)phenyl)urea]: the IC50 is 1 to 5 µM in assay [1], above 5 µM in assay [2] and above 5 µM in assay [3]. At BRAF V600E, this compound displayed an inhibition at 1 µM below 70%.

As for `O=C(Nc1ccc(F)cc1)Nc1cc(F)c(F)c(C(=O)c2ccc3ncccc3c2)c1F` [Compound C003, 1-(4-fluorophenyl)-3-(2,4,5-trifluoro-3-(quinoline-6-carbonyl)phenyl)urea], the IC50 in assay [1], in assay [2] and in assay [3] was above 5 µM in each case. For the same compound, the inhibition at 1 µM on BRAF and on BRAF V600E was below 70% in each case.

For `O=C(Nc1ccc(F)c(F)c1)Nc1cc(F)c(F)c(C(=O)c2ccc3ncccc3c2)c1F` [Compound C004, 1-(3,4-difluorophenyl)-3-(2,4,5-trifluoro-3-(quinoline-6-carbonyl)phenyl)urea], the IC50 is 1 to 5 µM in assay [1], above 5 µM in assay [2] and above 5 µM in assay [3]. Also, the inhibition at 1 µM against BRAF V600E was below 70%.

Turning to `O=C(Nc1cc(F)cc(F)c1)Nc1cc(F)c(F)c(C(=O)c2ccc3ncccc3c2)c1F` [Compound C005, 1-(3,5-difluorophenyl)-3-(2,4,5-trifluoro-3-(quinoline-6-carbonyl)phenyl)urea], the half-maximal inhibitory concentration (IC50) is 1 to 5 µM in assay [1], above 5 µM in assay [2] and 1 to 5 µM in assay [3]. The inhibition at 1 µM on BRAF V600E was below 70%.

In the case of `O=C(Nc1cc(F)c(F)c(C(=O)c2ccc3ncccc3c2)c1F)c1cccc(F)c1` [Compound C006, 3-fluoro-N-(2,4,5-trifluoro-3-(quinoline-6-carbonyl)phenyl)benzamide], the IC50 in assay [1], in assay [2] and in assay [3] was above 5 µM in each case. Besides, the inhibition at 1 µM against BRAF is below 70%; against BRAF V600E, 70 to 89%.

In the case of `O=C(Nc1cc(F)c(F)c(C(=O)c2ccc3ncccc3c2)c1F)c1ccc(F)cc1` [Compound C007, 4-fluoro-N-(2,4,5-trifluoro-3-(quinoline-6-carbonyl)phenyl)benzamide], the IC50 in assay [1], in assay [2] and in assay [3] was above 5 µM throughout. Further, the inhibition at 1 µM against BRAF V600E was below 70%.

Turning to `O=C(Nc1cc(F)c(F)c(C(=O)c2ccc3ncccc3c2)c1F)c1cc(F)cc(F)c1` [Compound C008, 3,5-difluoro-N-(2,4,5-trifluoro-3-(quinoline-6-carbonyl)phenyl)benzamide], the 50% inhibitory concentration (IC50) in assay [1], in assay [2] and in assay [3] was above 5 µM throughout. For the same compound, the inhibition at 1 µM at BRAF and against BRAF V600E was below 70% each time.

As to `O=C(Nc1cc(F)c(F)c(C(=O)c2ccc3ncccc3c2)c1F)c1ccc(F)c(F)c1` [Compound C009, 3,4-difluoro-N-(2,4,5-trifluoro-3-(quinoline-6-carbonyl)phenyl)benzamide], the IC50 in assay [1], in assay [2] and in assay [3] was above 5 µM throughout. At BRAF V600E, this compound registered an inhibition at 1 µM below 70%.

For `CCCS(=O)(=O)Nc1cc(F)c(F)c(C(=O)c2ccc3ncncc3c2)c1F` [Compound C010, N-(2,4,5-trifluoro-3-(quinazoline-6-carbonyl)phenyl)propane-1-sulfonamide], the IC50 in assay [1] is above 5 µM; in assay [2], below 1 µM; in assay [3] it was below 1 µM. The inhibition at 1 µM against BRAF and against BRAF V600E was above 89% throughout.

Values taken from patent US10457641B2, “Certain chemical entities, compositions, and methods” (NEUPHARMA, INC., priority 2012, dated 2019).
